Where “and” joins values, the source holds several entries; their conditions need not be identical. Identical values can stand only once. Like-named read-outs stand apart in the source and are kept apart here.
How the values were obtained:
[1] = molecular target: T1, rabbit muscle GPa (RMGPa) (Oryctolagus cuniculus, UniProt P00489); test: RMGPa inhibition assay (phosphate release from glucose-1-phosphate); assay type: biochemical; conditions: mean ± S.D. of three determinations; NI means no inhibition
T1 sequence (P00489 2-843 limits assumed): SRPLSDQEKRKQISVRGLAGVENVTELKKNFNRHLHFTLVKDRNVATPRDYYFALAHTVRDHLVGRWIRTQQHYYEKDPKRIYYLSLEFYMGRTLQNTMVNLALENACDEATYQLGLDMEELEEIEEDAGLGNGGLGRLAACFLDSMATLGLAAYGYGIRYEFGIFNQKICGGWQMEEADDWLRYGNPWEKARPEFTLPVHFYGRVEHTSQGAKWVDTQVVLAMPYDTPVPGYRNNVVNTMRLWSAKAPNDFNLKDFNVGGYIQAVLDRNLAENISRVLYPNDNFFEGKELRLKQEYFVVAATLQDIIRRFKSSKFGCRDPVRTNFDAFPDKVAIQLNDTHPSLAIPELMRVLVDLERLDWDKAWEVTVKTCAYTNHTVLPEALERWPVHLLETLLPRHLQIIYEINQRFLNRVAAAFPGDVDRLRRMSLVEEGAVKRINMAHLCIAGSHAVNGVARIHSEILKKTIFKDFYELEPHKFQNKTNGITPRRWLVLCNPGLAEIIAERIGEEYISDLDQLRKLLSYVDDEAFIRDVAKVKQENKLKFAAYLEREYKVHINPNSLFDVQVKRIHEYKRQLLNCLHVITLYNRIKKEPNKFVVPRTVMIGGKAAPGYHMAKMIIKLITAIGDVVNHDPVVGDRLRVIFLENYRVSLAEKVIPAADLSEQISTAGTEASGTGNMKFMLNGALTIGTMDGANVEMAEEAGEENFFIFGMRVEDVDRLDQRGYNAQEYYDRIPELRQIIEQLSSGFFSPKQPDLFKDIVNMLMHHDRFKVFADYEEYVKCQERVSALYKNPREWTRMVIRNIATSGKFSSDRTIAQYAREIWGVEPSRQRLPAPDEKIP
Method: All the compounds were evaluated for their inhibitory activity against rabbit muscle GPa (RMGPa). The activity of RMGPa was measured through detecting the release of phosphate from glucose-1-phosphate in the direction of glycogen synthesis. CP-91149, a well-known allosteric GP inhibitor, which shares the same binding site with PSN-357, was used as the positive control and the results are summarized in Table 1[21]. […] This remarkable loss of activity was probably due to the direct steric interference by such bulky substituent of cholic acid group. […] The results is consistent with the SARs of PSN-357 that the hydroxyl of piperidine is not an essential group for the GP inhibitory activity that could be modified slightly.
The inhibitory activity of the test compounds against rabbit muscle glycogen phosphorylase a (GPa) was monitored using microplate reader (BIO-RAD) based on the published method. In brief, GPa activity was measured in the direction of glycogen synthesis by the release of phosphate from glucose-1-phosphate. Each test compound was dissolved in DMSO and diluted at different concentrations for IC50 determination. The enzyme was added into 100 μL of buffer containing 50 mM Hepes (pH = 7.2), 100 mM KCl, 2.5 mM MgCl2, 0.5 mM glucose-1-phosphate, 1 mg/mL glycogen and the test compound in 96-well microplates (Costar). After the addition of 150 μL of 1 M HCl containing 10 mg/mL ammonium molybdate and 0.38 mg/mL malachite green, reactions were run at 22 °C for 25 min, and then the phosphate absorbance was measured at 655 nm. The IC50 values were estimated by fitting the inhibition data to a dose-dependent curve using a logistic derivative equation.

isolated rat hepatocytes = test: Glycogenolysis inhibition in isolated rat hepatocytes; assay type: cell-based; conditions: mean ± S.D. of three, NI means no inhibition
Source text: (§1) To evaluate the effects of all compounds in cells, the glycogenolysis assays were established in both rat and human liver cells based on the published method. […] The inhibitory activities of the derivatives of PSN-357 (e.g. 25–28) were also explored. It is not surprising that the derivatives still retained micromolar inhibitory activities. Introduction of steric bulks to the hydroxyl group (e.g. 33, 40, 42, 48) led to a complete loss of activity. Data analysis indicated no clear SAR for the substitutents in the cell-based assays.
(§2) The inhibition of hepatic glycogenolysis was monitored by the measurement of liver glycogen, which was done quantitatively by the anthrone reagent (Sigma) colorimetric method based on the published method. Isolated rat hepatocytes or HepG2 cells (Sigma) were treated with the test compound or DMSO solvent (final concentration, 0.10%), followed by 60-min incubation with 0.3 nM glucagon (GGN). Assays were terminated by centrifugation, and cells were digested with 30% KOH followed by glycogen determination. The IC50 values were estimated by fitting the inhibition data to a dose-dependent curve using a logistic derivative equation.

HepG2 cells = test: Glycogenolysis inhibition in HepG2 cells; assay type: cell-based, human; conditions: HepG2 cells, 60-min incubation with 0.3 nM glucagon, mean ± S.D. of three, NI means no inhibition, read-out: IC50 (glycogenolysis inhibition, HepG2 cells)
Source text: as §1, §2

[2] = Stability in simulated gastric fluid (SGF); assay type: in vitro ADME; conditions: SGF pH 1.21 with pepsin, 2 μM, 37 °C; for stability in SGF (in words): 24 h incubation
Method: (§3) All the conjugates were tested for their chemical and metabolic stability in multiple assays, including simulated gastric fluid (SGF), simulated interstinal fluid (SIF), mouse plasma, and mouse liver microsome (MLM).
(§4) For the stability in SGF (Fig. 8) and SIF (Fig. 9), the conjugates could be divided into three groups: (1) stable conjugates 2, 6 and 9. […] The two conjugates were degraded within 6 h and 1 h in SGF and SIF, respectively, with alomost no conjugates at the end of the 24 h incubation in both SGF and SIF; (3) complicated conjugates 3, 4, 5 and 8.
(§5) The simulated gastrointestinal fluids were prepared according to USP specifications. For SGF, NaCl (0.12 g) and pepsin (0.18 g, from porcine stomach mucosa) was dissolved in HCl (0.42 mL) and sufficient H2O was added to make 60 mL. The pH of the test solution was determined as 1.21 by pH meter. For the SIF, KH2PO4 (0.408 g) and pancreatin (0.6 g, from porcine pancreas) was dissolved in H2O (60 mL). The pH of the test solution was determined as 6.79 by pH meter. Each test compound was dissolved in DMSO and diluted to a final concentration of 2 μM in SIF and SGF. The final concentrations of DMSO and CH3CN in the incubation mixture were 0.2% and 0.45%. Aliquots of these solutions were pipetted into glass tubes, and placed in a 37 °C shaking water bath. Test samples at corresponding time point (1, 2, 6, 24 h) were removed at the end of incubation time and immediately mixed with 800 μL of cold acetonitrile containing 500 ng/mL tolbutamide (internal standard). Samples were subjected to centrifuge at 4000 rpm, 4 °C for 20 min. Aliquots 60 μL of supernatant was combined with 120 μL water for LC-MS/MS analysis.

[3] = Stability in simulated intestinal fluid (SIF); assay type: in vitro ADME; conditions: for time within which degraded in SIF: SIF pH 6.79 with pancreatin, 2 μM, 37 °C
Method: as §3, §4, §5

[4] = Stability in mouse liver microsomes (MLM); assay type: in vitro ADME; conditions: for CLint scaled at 10 μM / half-life at 10 μM / microsomal CLint at 10 μM: C57BL/6, pH 7.4, n = 3
Method: Additionally, the compounds’ stability in microsome were evaluated by measuring the rate of compounds consumpation in MLM and the results are shown in Table 3.
The microsomal pellet was suspended in potassium phosphate buffer (100 mM, pH 7.4), 10 μM test compound or positive control (diclofenac) was added. Liver microsomes from C57BL/6 mice (BD Gentest) were pooled. The mixture of microsome solution and compound was incubated at 37 °C for about 10 min in the presence of a NADPH-regenerating system, consisting of 0.02 M DL-isocitric acid (trisodium salt), 0.1 mg/mL isocitrate dehydrogenase and 1 mM NADPH. The addition of ice-cold CH3CN (including 100 ng/mL tolbutamide as internal standard) terminated the reaction. The mixture was vortexed for approx (30 s), centrifuged (20 min, 4000 rpm) and the supernatant was collected and analysed by LC-MS/MS method.

[5] = Rattus norvegicus, Hepatocyte, 1 h, read-out: IC50 (glycogenolysis inhibition, rat hepatocytes), isolated rat hepatocytes, 60-min incubation with 0.3 nM glucagon

SMILES | IC50 [1] | IC50 (isolated rat hepatocytes; [5]) [µM] | IC50 (HepG2 cells; Homo sapiens, HepG2, 1 h) [µM] | time within which degraded in SGF [2] [h] | time within which degraded in SIF [3] [h] | CLint scaled at 10 μM [4] [mL/min/kg] | half-life at 10 μM [4] [min] | microsomal CLint at 10 μM [4] [µL/min/mg] | stability in SGF (in words) [2] | fraction degraded during 24 h incubation in SIF [3] | melting point [°C] | metabolic stability in MLM (in words) [4] | IC50 (isolated rat hepatocytes; read-out: IC50 (glycogenolysis inhibition, rat hepatocytes), isolated rat hepatocytes, 60-min incubation with 0.3 nM glucagon) [µM] | IC50 (HepG2 cells) [µM]
C[C@H](CCC(=O)NCC(=O)OC1CCN(C(=O)[C@H](Cc2ccc(F)cc2)NC(=O)c2cc3cc(Cl)ncc3[nH]2)CC1)[C@H]1CC[C@H]2[C@@H]3[C@H](O)C[C@@H]4C[C@H](O)CC[C@]4(C)[C@H]3C[C@H](O)[C@]12C [Conjugate 1] | 5.9 µM and 5.94 µM | 41.1 ± 5.11 | 203 ± 3.39 | ≤ 6 | ≤ 1 | 172 | 31.9 | 43.4 |  |  |  |  |  | 
C[C@H](CCC(=O)N(C)CC(=O)OC1CCN(C(=O)[C@H](Cc2ccc(F)cc2)NC(=O)c2cc3cc(Cl)ncc3[nH]2)CC1)[C@H]1CC[C@H]2[C@@H]3[C@H](O)C[C@@H]4C[C@H](O)CC[C@]4(C)[C@H]3C[C@H](O)[C@]12C [Conjugate 2] | 26 ± 13.9 µM | 845 ± 132 | 172 ± 18.2 |  |  | 220 | 24.9 | 55.6 | stable | no more than 20% | 183 to 185 |  |  | 
C[C@H](NC(=O)CC[C@@H](C)[C@H]1CC[C@H]2[C@@H]3[C@H](O)C[C@@H]4C[C@H](O)CC[C@]4(C)[C@H]3C[C@H](O)[C@]12C)C(=O)OC1CCN(C(=O)[C@H](Cc2ccc(F)cc2)NC(=O)c2cc3cc(Cl)ncc3[nH]2)CC1 [Conjugate 3] | 40.5 ± 15.7 µM | 632 ± 99.4 |  |  | ≤ 1 | 200 | 27.4 | 50.6 | relatively stable |  |  |  |  | 
C[C@H](CCC(=O)N[C@@H](CO)C(=O)OC1CCN(C(=O)[C@H](Cc2ccc(F)cc2)NC(=O)c2cc3cc(Cl)ncc3[nH]2)CC1)[C@H]1CC[C@H]2[C@@H]3[C@H](O)C[C@@H]4C[C@H](O)CC[C@]4(C)[C@H]3C[C@H](O)[C@]12C [Conjugate 5] | 81.9 ± 14.4 µM |  |  |  | ≤ 1 | 135 | 40.8 | 34 | relatively stable |  | 175 to 177 |  |  | 
CC(NC(=O)C(NC(=O)CCC(C)C1CCC2C3C(O)CC4CC(O)CCC4(C)C3CC(O)C12C)C(C)C)C(=O)OC1CCN(C(=O)C(Cc2ccc(F)cc2)NC(=O)c2cc3cc(Cl)ncc3[nH]2)CC1 (stereo not drawn) [Conjugate 7] | 6.07 ± 0.27 µM | 42.1 ± 10.9 | 11.7 ± 3.8 | ≤ 6 | ≤ 1 | 1180 | 4.7 | 297 |  |  |  |  |  | 
CC(CCC(=O)NC(Cc1ccccc1)C(=O)NC(CCCCN)C(=O)OC1CCN(C(=O)C(Cc2ccc(F)cc2)NC(=O)c2cc3cc(Cl)ncc3[nH]2)CC1)C1CCC2C3C(O)CC4CC(O)CCC4(C)C3CC(O)C12C (stereo not drawn) [Conjugate 8] | 10.7 ± 5.6 µM | 64.5 ± 4.4 | 36.8 ± 4.14 |  | ≤ 1 | 64.2 | 85.6 | 16.2 | relatively stable |  |  | considerable metabolic stability |  | 
C[C@H](CCC(=O)NCCNC(=O)c1ccc(/N=N/c2ccccc2CCC(=O)OC2CCN(C(=O)[C@H](Cc3ccc(F)cc3)NC(=O)c3cc4cc(Cl)ncc4[nH]3)CC2)cc1)[C@H]1CC[C@H]2[C@@H]3[C@H](O)C[C@@H]4C[C@H](O)CC[C@]4(C)[C@H]3C[C@H](O)[C@]12C [Conjugate 9] | 51.7 ± 4.1 µM | 12.3 | 6.4 |  |  | 60.2 | 91.2 | 15.2 | stable | no more than 20% | 172 to 174 | considerable metabolic stability | 12.3 ± 3.93 | 6.41 ± 1.25
